The target of this experiment is PD-L1 His protein / PD-1 Fc protein (Homo sapiens, UniProt Q9NZQ7). The experiment can be described thus: HTRF Assay (PD-1/PD-L1 interaction). Format: binding. Conditions: PD-L1 His 6 nM, PD-1 Fc 6 nM. The method in brief: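 HTRF: PD-L1 His (6 nM final), compound (3-fold dilutions, 20 μM to 0.001 μM final) and PD-1 Fc (6 nM final) preincubated 15 min at room temperature. Anti-human IgG-XL665 and anti-6HIS Tb cryptate (mixed at 6.7 nM and 0.35 nM) then added for 1 h at room temperature before reading.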
PD-L1 His protein / PD-1 Fc protein, sequence (Q9NZQ7 19-238 limits assumed): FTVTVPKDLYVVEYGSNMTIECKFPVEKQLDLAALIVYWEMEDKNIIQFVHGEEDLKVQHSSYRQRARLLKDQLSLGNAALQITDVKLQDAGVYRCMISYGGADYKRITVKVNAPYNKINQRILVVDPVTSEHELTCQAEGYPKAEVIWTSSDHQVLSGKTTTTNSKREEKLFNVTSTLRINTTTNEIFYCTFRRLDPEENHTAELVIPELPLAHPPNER
On the technique in general: TR-FRET usually uses a lanthanide donor and a delayed reading to cut background.

Molecules are shown by their SMILES.

For `CNC(=O)C1(NCc2cc(=O)n3ccc(-c4cccc(-c5cccc(-c6ccc(CNC[C@@H]7CCC(=O)N7)c(OC)n6)c5Cl)c4Cl)cc3n2)CC1` [Example 349, (S)-1-(((8-(2,2′-Dichloro-3′-(6-methoxy-5-((((5-oxopyrrolidin-2-yl)methyl)amino)methyl)pyridin-2-yl)-[1,1′-biphenyl]-3-yl)-4-oxo-4H-pyrido[1,2-a]pyrimidin-2-yl)methyl)amino)-N-methylcyclopropanecarboxamide], the midpoint of inhibition, the IC50, lay at 0.2 nM.

Consider `COc1nc(-c2cccc(-c3cccc(-c4cc5c(=O)n(C)c(CNC[C@H](C)O)nn5c4)c3Cl)c2Cl)ccc1CNC[C@@H]1CCC(=O)N1` [Example 350, 6-(2,2′-Dichloro-3′-(6-methoxy-5-(((((S)-5-oxopyrrolidin-2-yl)methyl)amino)methyl)pyridin-2-yl)-[1,1′-biphenyl]-3-yl)-2-((((S)-2-hydroxypropyl)amino)methyl)-3-methylpyrrolo[2,1-f][1,2,4]triazin-4(3H)-one], for which half-maximal inhibition (IC50) was put at 0.1 nM. Against the preceding molecule, the IC50 is about 2-fold lower.

With `COc1nc(-c2cccc(-c3cccc(-c4cc5c(=O)n(C)c(CNCCO)nn5c4)c3Cl)c2Cl)ccc1CNC[C@@H]1CCC(=O)N1` [Example 351, (S)-6-(2,2′-Dichloro-3′-(6-methoxy-5-((((5-oxopyrrolidin-2-yl)methyl)amino)methyl)pyridin-2-yl)-[1,1′-biphenyl]-3-yl)-2-(((2-hydroxyethyl)amino)methyl)-3-methylpyrrolo[2,1-f][1,2,4]triazin-4(3H)-one], the IC50 (usually the concentration at which inhibition is half-maximal) stood at 200 nM.

On to `COc1nc(-c2cccc(-c3cccc(-c4ccc5nc(CNCCO)cn5n4)c3Cl)c2Cl)ccc1CNC[C@@H]1CCC(=O)N1` [Example 352, (5S)-5-[[[6-[2-Chloro-3-[2-chloro-3-[2-[(2-hydroxyethylamino)methyl]imidazo[1,2-b]pyridazin-6-yl]phenyl]phenyl]-2-methoxy-3-pyridyl]methylamino]methyl]pyrrolidin-2-one], for which the IC50 worked out at 0.5 nM.

In turn, `COc1nc(-c2cccc(-c3cccc(-c4ccc5nc(CNC[C@H](C)O)cn5n4)c3Cl)c2Cl)ccc1CNC[C@@H]1CCC(=O)N1` [Example 354, (5S)-5-[[[6-[2-Chloro-3-[2-chloro-3-[2-[[[(2S)-2-hydroxypropyl]amino]methyl]imidazo[1,2-b]pyridazin-6-yl]phenyl]phenyl]-2-methoxy-3-pyridyl]methylamino]methyl]pyrrolidin-2-one] showed an IC50 of 0.8 nM.

Molecule `COc1nc(-c2cccc(-c3cccc(-c4ccc5nc(CNC[C@@H](O)CC(=O)N(C)C)cn5n4)c3Cl)c2Cl)ccc1CNC[C@@H]1CCC(=O)N1` [Example 355, (3S)-4-[[6-[2-Chloro-3-[2-chloro-3-[6-methoxy-5-[[[(2S)-5-oxopyrrolidin-2-yl]methylamino]methyl]-2-pyridyl]phenyl]phenyl]imidazo[1,2-b]pyridazin-2-yl]methylamino]-3-hydroxy-N,N-dimethyl-butanamide] returned an IC50 of 0.1 nM.

In the case of `COc1nc(-c2cccc(-c3cccc(-c4ccc5nc(CNC[C@@H]6CCC(=O)N6)cn5c4)c3Cl)c2Cl)ccc1CNC[C@@H]1CCC(=O)N1` [Example 356, (5S)-5-[[[6-[2-Chloro-3-[2-chloro-3-[2-[[[(2S)-5-oxopyrrolidin-2-yl]methylamino]methyl]imidazo[1,2-a]pyridin-6-yl]phenyl]phenyl]-2-methoxy-3-pyridyl]methylamino]methyl]pyrrolidin-2-one], inhibition was half-maximal at 86 nM (IC50). Against the preceding molecule, the IC50 is about 860-fold higher.

`COc1nc(-c2cccc(-c3cccc(-c4ccn5cc(CNC[C@@H]6CCC(=O)N6)nc5c4)c3Cl)c2Cl)ccc1CNC[C@@H]1CCC(=O)N1` [Example 357, (5S)-5-[[[6-[2-Chloro-3-[2-chloro-3-[2-[[[(2S)-5-oxopyrrolidin-2-yl]methylamino]methyl]imidazo[1,2-a]pyridin-7-yl]phenyl]phenyl]-2-methoxy-3-pyridyl]methylamino]methyl]pyrrolidin-2-one] had an IC50 of 50 nM. This IC50 is about 1.7-fold lower than that of the molecule before.

`COC(=O)C1(CNCc2cnc3cc(-c4cccc(-c5cccc(-c6ccc(CNC[C@@H]7CCC(=O)N7)c(OC)n6)c5Cl)c4Cl)ccn3c2=O)COC1` [Example 358, methyl (S)-3-((((8-(2,2′-dichloro-3′-(6-methoxy-5-((((5-oxopyrrolidin-2-yl)-methyl)-amino)-methyl)-pyridin-2-yl)-[1,1′-biphenyl]-3-yl)-4-oxo-4H-pyrido[1,2-a]pyrimidin-3-yl)-methyl)-amino)-methyl)oxetane-3-carboxylate] returned an IC50 of 0.1 nM. Against the preceding molecule, the IC50 is about 500-fold lower.

On to `COc1nc(-c2cccc(-c3cccc(-c4ccn5c(=O)c(CNCC6NC(=O)CC6(C)C)cnc5c4)c3Cl)c2Cl)ccc1CNC[C@@H]1CCC(=O)N1` (stereo partly drawn) [Example 359, 8-(2,2′-dichloro-3′-(6-methoxy-5-(((((S)-5-oxopyrrolidin-2-yl)methyl)-amino)-methyl)-pyridin-2-yl)-[1,1′-biphenyl]-3-yl)-3-((((3,3-dimethyl-5-oxopyrrolidin-2-yl)methyl)amino)methyl)-4H-pyrido[1,2-a]pyrimidin-4-one], for which it took 67 nM to reach half-maximal inhibition (IC50).

Consider `COc1cc(-c2cccc(-c3cccc(-c4ccn5c(=O)c(CNC[C@@H]6CCC(=O)N6)cnc5c4)c3Cl)c2Cl)cnc1CNC[C@@H]1CCC(=O)N1` [Example 360, 8-(2,2′-Dichloro-3′-(5-methoxy-6-(((((S)-5-oxopyrrolidin-2-yl)-methyl)-amino)methyl)-pyridin-3-yl)-[1,1′-biphenyl]-3-yl)-3-(((((S)-5-oxopyrrolidin-2-yl)methyl)amino)methyl)-4H-pyrido[1,2-a]pyrimidin-4-one], for which the IC50 worked out at 0.7 nM. This IC50 lies about 96-fold lower than the previous one.

With `COc1cc(-c2cccc(-c3cccc(-c4ccn5c(=O)c(CN[C@H]6C[C@](C)(O)C6)cnc5c4)c3Cl)c2Cl)cnc1CN[C@H]1C[C@](C)(O)C1` [Example 361, 8-(2,2′-Dichloro-3′-(6-((((1r,3r)-3-hydroxy-3-methylcyclobutyl)amino)methyl)-5-methoxypyridin-3-yl)-[1,1′-biphenyl]-3-yl)-3-((((1r,3r)-3-hydroxy-3-methylcyclobutyl)amino)methyl)-4H-pyrido[1,2-a]pyrimidin-4-one], half-maximal inhibition (IC50) was put at 39 nM.

Regarding `COc1cc(-c2cccc(-c3cccc(-c4ccn5c(=O)c(CN(C)CCO)cnc5c4)c3Cl)c2Cl)cnc1CN(C)CCO` [Example 362, 8-(2,2′-Dichloro-3′-(6-(((2-hydroxyethyl)(methyl)amino)methyl)-5-methoxypyridin-3-yl)-[1,1′-biphenyl]-3-yl)-3-(((2-hydroxyethyl)(methyl)amino)methyl)-4H-pyrido[1,2-a]pyrimidin-4-one], the IC50 is 36 nM.

Molecule `COc1nc(-c2cccc(-c3cccc(-c4ccc5c(c4)CNCCN5C)c3Cl)c2Cl)ccc1CNC[C@@H]1CCC(=O)N1` [Example 363, (S)-5-((((6-(2,2′-Dichloro-3′-(1-methyl-2,3,4,5-tetrahydro-1H-benzo[e][1,4]diazepin-7-yl)-[1,1′-biphenyl]-3-yl)-2-methoxypyridin-3-yl)methyl)amino)methyl)pyrrolidin-2-one] came in with an IC50 of 85 nM.

Turning to `COc1nc(-c2cccc(-c3cccc(-c4ccc5c(c4)N(C)CCNC5)c3Cl)c2Cl)ccc1CNC[C@@H]1CCC(=O)N1` [Example 364, (S)-5-((((6-(2,2′-Dichloro-3′-(1-methyl-2,3,4,5-tetrahydro-1H-benzo[e][1,4]diazepin-8-yl)-[1,1′-biphenyl]-3-yl)-2-methoxypyridin-3-yl)methyl)amino)methyl)pyrrolidin-2-one], it took 150 nM to reach half-maximal inhibition (IC50).

On to `COc1nc(-c2cccc(-c3cccc(-c4ccc5c(c4)cc4n5CCNC4)c3Cl)c2Cl)ccc1CNC[C@@H]1CCC(=O)N1` [Example 365, (S)-5-((((6-(2,2′-Dichloro-3′-(1,2,3,4-tetrahydropyrazino[1,2-a]indol-8-yl)-[1,1′-biphenyl]-3-yl)-2-methoxypyridin-3-yl)methyl)amino)methyl)919yrrolidine-2-one], for which it took 13 nM to reach half-maximal inhibition (IC50).

Take `COc1nc(-c2cccc(-c3cccc(-c4ccc5c(n4)c(Cl)c(CNC[C@@H]4CCC(=O)N4)n5C)c3Cl)c2Cl)ccc1CNC[C@@H]1CCC(=O)N1` [Example 366, (S)-5-((((3-Chloro-5-(2,2′-dichloro-3′-(6-methoxy-5-(((((S)-5-oxopyrrolidin-2-yl)methyl)-amino)methyl)-pyridin-2-yl)-[1,1′-biphenyl]-3-yl)-1-methyl-1H-pyrrolo[3,2-b]pyridin-2-yl)methyl)amino)-methyl)-pyrrolidin-2-one]: inhibition was half-maximal at 1.5 nM (IC50).

The molecule `COc1nc(-c2cccc(-c3cccc(-c4ccc5c(OC)c(CNC[C@H](C)O)cc(Cl)c5n4)c3Cl)c2Cl)ccc1CNC[C@@H]1CCC(=O)N1` [Example 367, (S)-5-((((6-(2,2′-Dichloro-3′-(8-chloro-6-((((S)-2-hydroxypropyl)amino)methyl)-5-methoxyquinolin-2-yl)-[1,1′-biphenyl]-3-yl)-2-methoxypyridin-3-yl)methyl)amino)methyl)pyrrolidin-2-one] had an IC50 of 21 nM.

For `COc1nc(-c2cccc(-c3cccc(-c4ccn5c(=O)c(CNCC6(C)CCC(=O)N6)cnc5c4)c3Cl)c2Cl)ccc1CNC[C@@H]1CCC(=O)N1` (stereo partly drawn) [Example 368, 8-(2,2′-dichloro-3′-(6-methoxy-5-(((((S)-5-oxopyrrolidin-2-yl)-methyl)-amino)-methyl)-pyridin-2-yl)-[1,1′-biphenyl]-3-yl)-3-((((2-methyl-5-oxopyrrolidin-2-yl)methyl)-amino)-methyl)-4H-pyrido[1,2-a]pyrimidin-4-one], the IC50 was 1 nM.

On to `COc1nc(-c2cccc(-c3cccc(-c4ccc5cc(CNC[C@@H]6CCC(=O)N6)ccc5n4)c3Cl)c2Cl)ccc1CNC[C@@H]1CCC(=O)N1` [Example 369, (5S)-5-[[[2-[2-Chloro-3-[2-chloro-3-[6-methoxy-5-[[[(2S)-5-oxopyrrolidin-2-yl]methylamino]methyl]-2-pyridyl]phenyl]phenyl]-6-quinolyl]methylamino]methyl]pyrrolidin-2-one], for which the IC50 came out at 560 nM.

The record behind these values is patent US20230143612A1 (Arbutus Biopharma Corporation, priority 2020, published 2023).
